# Source: US20260000676A1, “CHROMAN DERIVATIVES AS ESTROGEN RECEPTOR DEGRADERS” (THE REGENTS OF THE UNIVERSITY OF MICHIGAN, priority 2022, published 2026)
# Target: CRBN/DDB1 (Homo sapiens (Human), UniProt Q96SW2)
# Assay: HTRF binding assay to CRBN/DDB1
# Settings: read-out: CRBN HTRF IC50
# Protocol: The binding potency was determined using HTRF assay technology (Perkin Elmer). Compounds were serially diluted in DMSO and 0.2 μL volume was transferred to white 384-well plate.
# Chain of CRBN/DDB1 (Q96SW2 whole entry): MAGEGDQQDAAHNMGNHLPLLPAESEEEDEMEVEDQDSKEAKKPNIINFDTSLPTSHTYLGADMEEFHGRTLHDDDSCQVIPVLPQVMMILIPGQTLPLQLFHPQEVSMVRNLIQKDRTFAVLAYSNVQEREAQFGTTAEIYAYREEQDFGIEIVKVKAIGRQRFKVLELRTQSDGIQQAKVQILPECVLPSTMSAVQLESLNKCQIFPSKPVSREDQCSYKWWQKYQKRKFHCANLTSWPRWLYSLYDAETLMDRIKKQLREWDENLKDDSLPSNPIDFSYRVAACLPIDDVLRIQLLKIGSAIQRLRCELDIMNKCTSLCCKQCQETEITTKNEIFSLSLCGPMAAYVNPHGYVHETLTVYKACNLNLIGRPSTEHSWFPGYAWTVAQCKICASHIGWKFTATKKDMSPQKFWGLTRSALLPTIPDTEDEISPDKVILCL
# Chain of CRBN/DDB1 (Q16531 whole entry partner): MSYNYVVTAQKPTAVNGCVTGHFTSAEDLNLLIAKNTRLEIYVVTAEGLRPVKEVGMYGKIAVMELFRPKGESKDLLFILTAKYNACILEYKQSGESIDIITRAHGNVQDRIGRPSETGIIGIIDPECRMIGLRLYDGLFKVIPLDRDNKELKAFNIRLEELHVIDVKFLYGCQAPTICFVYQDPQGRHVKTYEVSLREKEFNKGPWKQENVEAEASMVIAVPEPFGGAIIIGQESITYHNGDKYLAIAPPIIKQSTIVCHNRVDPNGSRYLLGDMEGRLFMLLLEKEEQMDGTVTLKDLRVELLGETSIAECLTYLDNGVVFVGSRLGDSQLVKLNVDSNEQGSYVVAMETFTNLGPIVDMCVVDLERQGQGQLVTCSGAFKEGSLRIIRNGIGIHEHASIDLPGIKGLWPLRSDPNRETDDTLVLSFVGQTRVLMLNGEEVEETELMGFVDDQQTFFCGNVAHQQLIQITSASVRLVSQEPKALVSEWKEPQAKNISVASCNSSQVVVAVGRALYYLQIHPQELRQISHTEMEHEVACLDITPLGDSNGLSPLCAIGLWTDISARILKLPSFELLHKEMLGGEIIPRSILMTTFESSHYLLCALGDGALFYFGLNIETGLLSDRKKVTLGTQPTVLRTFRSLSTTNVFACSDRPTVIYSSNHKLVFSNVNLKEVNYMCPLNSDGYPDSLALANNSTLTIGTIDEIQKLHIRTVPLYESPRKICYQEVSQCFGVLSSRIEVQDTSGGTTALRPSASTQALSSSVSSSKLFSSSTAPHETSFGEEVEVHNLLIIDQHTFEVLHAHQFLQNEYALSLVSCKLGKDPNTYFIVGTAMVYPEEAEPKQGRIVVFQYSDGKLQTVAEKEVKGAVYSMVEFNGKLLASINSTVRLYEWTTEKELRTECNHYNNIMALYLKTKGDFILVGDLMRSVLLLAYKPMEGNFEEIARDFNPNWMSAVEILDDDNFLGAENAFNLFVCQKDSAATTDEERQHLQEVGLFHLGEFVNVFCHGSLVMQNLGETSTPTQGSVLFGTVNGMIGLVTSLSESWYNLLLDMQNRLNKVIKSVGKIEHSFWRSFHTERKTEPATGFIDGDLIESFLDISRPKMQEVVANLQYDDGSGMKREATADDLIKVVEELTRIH
row,Compound,IC50
1,"O=C1CCC(N2Cc3c(ccc4c3OC[C@@H]3CN(CC5CCN(c6ncc([C@@H]7c8ccc(O)cc8OC[C@@H]7c7ccccc7)cn6)CC5)CCN43)C2=O)C(=O)N1 (single isomer, unassigned) [Compound A20]",< 50 nM
2,"O=C1CCC(N2C(=O)c3cc4c(cc3C2=O)CN(CC(=O)N2CCC3(CC2)CCN(c2ncc([C@@H]5c6ccc(O)cc6OC[C@@H]5c5ccccc5)cn2)CC3)C4)C(=O)N1 (stereo partly drawn) [Compound A5, 2-(2,6-dioxopiperidin-3-yl)-6-(2-(9-(5-((3S,4R)-7-hydroxy-3-phenylchroman-4-yl)pyrimidin-2-yl)-3,9-diazaspiro[5.5]undecan-3-yl)-2-oxoethyl)-6,7-dihydropyrrolo[3,4-f]isoindole-1,3(2H,5H)-dione]",500 to 5000 nM
3,"O=C1CCC(N2C(=O)c3cc4c(cc3C2=O)CN(CC(=O)N2CC3(CCN(c5ccc([C@H]6c7ccc(O)cc7OC[C@H]6c6ccccc6)cc5)CC3)C2)C4)C(=O)N1 (single isomer, unassigned) [Compound A39]",50 to 500 nM
4,"O=C1CCC(Nc2ccc(N3CCN(CC4CCN(c5ccc([C@@H]6c7ccc(O)cc7OC[C@@H]6c6ccccc6)cc5F)CC4)CC3)c(F)c2)C(=O)N1 (stereo partly drawn) [Compound A29, 3-((3-fluoro-4-(4-((1-(2-fluoro-4-((3S,4R)-7-hydroxy-3-phenylchroman-4-yl)phenyl)piperidin-4-yl)methyl)piperazin-1-yl)phenyl)amino)piperidine-2,6-dione]",500 to 5000 nM
5,"COc1cccc([C@@H]2COc3cc(O)ccc3[C@@H]2c2ccc(N3CCC(CN4CCN5c6ccc7c(c6OC[C@@H]5C4)CN(C4CCC(=O)NC4=O)C7=O)CC3)cc2)c1 (single isomer, unassigned) [Compound A24]",< 50 nM
6,"O=C1CCC(N2Cc3c(ccc4c3OC[C@H]3CN(CC5CCN(c6ccc([C@@H]7c8ccc(O)cc8OC[C@@H]7c7ccccc7)cc6F)CC5)CCN43)C2=O)C(=O)N1 (single isomer, unassigned) [Compound A9]",50 to 500 nM
7,"O=C1CCC(N2Cc3cc4c(cc3C2=O)OC[C@@H]2CN(CC3CC5(CCN(c6ccc([C@H]7c8ccc(O)cc8OC[C@H]7c7ccccc7)cc6)CC5)C3)CCN42)C(=O)N1 (single isomer, unassigned) [Compound A27, 3-((S)-3-((7-(4-((3R,4S)-7-hydroxy-3-phenylchroman-4-yl)phenyl)-7-azaspiro[3.5]nonan-2-yl)methyl)-8-oxo-1,2,3,4,4a,5,8,10-octahydro-9H-pyrazino[1′,2′:4,5][1,4]oxazino[2,3-f]isoindol-9-yl)piperidine-2,6-dione]",500 to 5000 nM
8,"O=C1CCC(N2C(=O)c3cc4c(cc3C2=O)CN(C(=O)CN2CC3(CCN(c5ccc([C@@H]6c7ccc(O)cc7OC[C@@H]6c6ccccc6)cc5)CC3)C2)C4)C(=O)N1 (stereo partly drawn) [Compound A32, 2-(2,6-dioxopiperidin-3-yl)-6-(2-(7-(4-((3S,4R)-7-hydroxy-3-phenylchroman-4-yl)phenyl)-2,7-diazaspiro[3.5]nonan-2-yl)acetyl)-6,7-dihydropyrrolo[3,4-f]isoindole-1,3(2H,5H)-dione]",500 to 5000 nM
9,"O=C1CCC(N2Cc3c(ccc4c3OC[C@@H]3CN(CC5CC6(CCN(c7ccc([C@H]8c9ccc(O)cc9OC[C@H]8c8ccccc8)cc7)CC6)C5)CCN43)C2=O)C(=O)N1 (single isomer, unassigned) [Compound A21, 3-((S)-7-((7-(4-((3R,4S)-7-hydroxy-3-phenylchroman-4-yl)phenyl)-7-azaspiro[3.5]nonan-2-yl)methyl)-1-oxo-1,3,5,5a,6,7,8,9-octahydro-2H-pyrazino[1′,2′:4,5][1,4]oxazino[2,3-e]isoindol-2-yl)piperidine-2,6-dione]",< 50 nM
10,"COc1ccc([C@H]2COc3cc(O)ccc3[C@H]2c2ccc(N3CCC(CN4CCN5c6ccc7c(c6OC[C@@H]5C4)CN(C4CCC(=O)NC4=O)C7=O)CC3)cc2)cc1 (single isomer, unassigned) [Compound A13]",50 to 500 nM
11,"O=C1CCC(N2Cc3cc4c(cc3C2=O)OC[C@@H]2CN(CC3CCN(c5ccc([C@H]6c7ccc(O)cc7OC[C@H]6c6ccccc6)cc5)CC3)CCN42)C(=O)N1 (stereo partly drawn) [Compound A11, 3-((S)-3-((1-(4-((3R,4S)-7-hydroxy-3-phenylchroman-4-yl)phenyl)piperidin-4-yl)methyl)-8-oxo-1,2,3,4,4a,5,8,10-octahydro-9H-pyrazino[1′,2′:4,5][1,4]oxazino[2,3-f]isoindol-9-yl)piperidine-2,6-dione]",> 5000 nM
12,"O=C1CCC(N2Cc3c(ccc4c3OC[C@@H]3CN(CC5CCN(c6ncc([C@H]7c8ccc(O)cc8OC[C@H]7c7ccccc7)cn6)CC5)CCN43)C2=O)C(=O)N1 (single isomer, unassigned) [Compound A19]",50 to 500 nM
13,"COc1cccc([C@H]2COc3cc(O)ccc3[C@H]2c2ccc(N3CCC(CN4CCN5c6ccc7c(c6OC[C@@H]5C4)CN(C4CCC(=O)NC4=O)C7=O)CC3)cc2)c1 (single isomer, unassigned) [Compound A23]",< 50 nM
14,"O=C1CCC(N2Cc3cc4c(cc3C2=O)OC[C@@H]2CN(CC3CCN(c5ncc([C@@H]6c7ccc(O)cc7OC[C@@H]6c6ccccc6)cn5)CC3)CCN42)C(=O)N1 (stereo partly drawn) [Compound A10, 3-((S)-3-((1-(5-((3S,4R)-7-hydroxy-3-phenylchroman-4-yl)pyrimidin-2-yl)piperidin-4-yl)methyl)-8-oxo-1,2,3,4,4a,5,8,10-octahydro-9H-pyrazino[1′,2′:4,5][1,4]oxazino[2,3-f]isoindol-9-yl)piperidine-2,6-dione]",500 to 5000 nM
15,"O=C1CCC(N2C(=O)c3cc4c(cc3C2=O)CN(CC(=O)N2CCC3(CC2)CCN(c2ncc([C@H]5c6ccc(O)cc6OC[C@H]5c5ccccc5)cn2)CC3)C4)C(=O)N1 (stereo partly drawn) [Compound A4, 2-(2,6-dioxopiperidin-3-yl)-6-(2-(9-(5-((3R,4S)-7-hydroxy-3-phenylchroman-4-yl)pyrimidin-2-yl)-3,9-diazaspiro[5.5]undecan-3-yl)-2-oxoethyl)-6,7-dihydropyrrolo[3,4-f]isoindole-1,3(2H,5H)-dione]",500 to 5000 nM
16,"COc1ccc([C@@H]2COc3cc(O)ccc3[C@@H]2c2ccc(N3CCC(CN4CCN5c6ccc7c(c6OC[C@@H]5C4)CN(C4CCC(=O)NC4=O)C7=O)CC3)cc2)cc1 (single isomer, unassigned) [Compound A12]",50 to 500 nM
17,"O=C1CCC(Nc2ccc(N3CCN(CC4CCN(c5ccc([C@@H]6c7ccc(O)cc7OC[C@@H]6c6ccccc6)cc5)CC4)CC3)c(F)c2)C(=O)N1 (stereo partly drawn) [Compound A30, 3-((3-fluoro-4-(4-((1-(4-((3S,4R)-7-hydroxy-3-phenylchroman-4-yl)phenyl)piperidin-4-yl)methyl)piperazin-1-yl)phenyl)amino)piperidine-2,6-dione]",500 to 5000 nM
18,"Cc1nn(C2CCC(=O)NC2=O)c2ccc(N3CCN(CC4CC5(CCN(c6ccc([C@@H]7c8ccc(O)cc8OC[C@@H]7c7ccccc7)cc6)CC5)C4)CC3)cc12 (single isomer, unassigned) [Compound A25]",50 to 500 nM
19,"O=C1CCC(N2Cc3c(ccc4c3OC[C@@H]3CN(CC5CC6(CCN(c7ccc([C@@H]8c9ccc(O)cc9OC[C@@H]8c8ccccc8)cc7)CC6)C5)CCN43)C2=O)C(=O)N1 (stereo partly drawn) [Compound A22, 3-((S)-7-((7-(4-((3S,4R)-7-hydroxy-3-phenylchroman-4-yl)phenyl)-7-azaspiro[3.5]nonan-2-yl)methyl)-1-oxo-1,3,5,5a,6,7,8,9-octahydro-2H-pyrazino[1′,2′:4,5][1,4]oxazino[2,3-e]isoindol-2-yl)piperidine-2,6-dione]",< 50 nM
20,"COc1ccc([C@@H]2COc3cc(O)ccc3[C@@H]2c2ccc(N3CCC(CN4CCN5c6ccc7c(c6OC[C@H]5C4)CN(C4CCC(=O)NC4=O)C7=O)CC3)cc2)cc1 (single isomer, unassigned) [Compound A15]",50 to 500 nM
21,"O=C1CCC(N2Cc3cc4c(cc3C2=O)OC[C@@H]2CN(CC3CCN(c5ncc([C@H]6c7ccc(O)cc7OC[C@H]6c6ccccc6)cn5)CC3)CCN42)C(=O)N1 (stereo partly drawn) [Compound A18, 3-((S)-3-((1-(5-((3R,4S)-7-hydroxy-3-phenylchroman-4-yl)pyrimidin-2-yl)piperidin-4-yl)methyl)-8-oxo-1,2,3,4,4a,5,8,10-octahydro-9H-pyrazino[1′,2′:4,5][1,4]oxazino[2,3-f]isoindol-9-yl)piperidine-2,6-dione]",500 to 5000 nM
22,"O=C1CCC(N2Cc3cc4c(cc3C2=O)OC[C@@H]2CN(CC3CC5(CCN(c6ccc([C@@H]7c8ccc(O)cc8OC[C@@H]7c7ccccc7)cc6)CC5)C3)CCN42)C(=O)N1 (stereo partly drawn) [Compound A28, 3-((S)-3-((7-(4-((3S,4R)-7-hydroxy-3-phenylchroman-4-yl)phenyl)-7-azaspiro[3.5]nonan-2-yl)methyl)-8-oxo-1,2,3,4,4a,5,8,10-octahydro-9H-pyrazino[1′,2′:4,5][1,4]oxazino[2,3-f]isoindol-9-yl)piperidine-2,6-dione]",> 5000 nM

# Target: ER (Homo sapiens (Human), UniProt P03372)
# Assay: In-cell western (ICW) ER degradation assay in MCF-7 cells
# Assay type: cell-based
# Settings: ER degradation, MCF7, 16 hrs
# Protocol: ERa degradative activity of compounds can be assessed in MCF-7 and T47D Cells. MCF-7 and T47D cell are seeded and are subsequently treated with the compounds at certain concentrations (e.g., 0.02 to 300 nM). DMSO can be used as vehicle control. Cells are fixed and are blocked with Intercept (PBS) Blocking Buffer (e.g., Li-COR, Odyssey Blocking Buffer), and are stained with ER (e.g., 1:500, Cell signaling) primary antibody for overnight at cold room. Secondary Antibody (e.g., IRDye 800CW Goat anti-Rabbit IgG) and CellTag 700 Stain are added in Intercept (PBS) Blocking Buffer. Finally, cell plate is placed in incubator to dry. Image and signal are captured on Odyssey® DLx Imaging System.
# Day 3: After 16 hrs of compounds treatment, cells were fixed by 4% PFA and permeabilized with elution buffer (0.1% Triton X-100 in 1% PBS Solution). Subsequently, cells were blocked with Intercept (PBS) Blocking Buffer (Li-COR, Odyssey Blocking Buffer), and were stained with ER (1:500, Cell signaling) primary antibody for overnight at cold room.
# Day 4: Remove the buffer, add IRDye 800CW Goat anti-Rabbit IgG Secondary Antibody (1:2000) and CellTag 700 Stain (1:500) in Intercept (PBS) Blocking Buffer. Finally, cell plate is placed in incubator to dry. Image and signal were captured on Odyssey® DLx Imaging System.
# Chain of ER (P03372 whole entry): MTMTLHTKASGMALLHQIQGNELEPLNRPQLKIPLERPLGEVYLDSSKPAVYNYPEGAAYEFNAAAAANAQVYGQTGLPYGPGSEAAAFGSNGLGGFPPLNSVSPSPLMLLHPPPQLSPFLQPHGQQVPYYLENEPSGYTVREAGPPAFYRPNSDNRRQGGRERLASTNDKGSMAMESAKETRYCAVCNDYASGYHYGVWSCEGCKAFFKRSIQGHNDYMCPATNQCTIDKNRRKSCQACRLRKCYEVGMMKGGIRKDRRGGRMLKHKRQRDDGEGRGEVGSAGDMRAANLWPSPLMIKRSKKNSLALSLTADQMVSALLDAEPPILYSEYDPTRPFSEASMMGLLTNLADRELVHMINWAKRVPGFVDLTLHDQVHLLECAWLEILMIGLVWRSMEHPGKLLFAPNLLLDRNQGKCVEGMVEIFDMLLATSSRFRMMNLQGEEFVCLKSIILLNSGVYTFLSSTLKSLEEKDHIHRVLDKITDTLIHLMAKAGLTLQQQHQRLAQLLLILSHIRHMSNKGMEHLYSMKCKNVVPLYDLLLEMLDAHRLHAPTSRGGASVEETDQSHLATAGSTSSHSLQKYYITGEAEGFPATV
row,Compound,DC50
1,"O=C1CCC(N2C(=O)c3cc4c(cc3C2=O)CN(CC(=O)N2CC3(CCN(c5ccc([C@H]6c7ccc(O)cc7OC[C@H]6c6ccccc6)cc5)CC3)C2)C4)C(=O)N1 (single isomer, unassigned) [Compound A39]",> 100 nM
2,"O=C1CCC(N2Cc3c(ccc4c3OC[C@H]3CN(CC5CCN(c6ccc([C@@H]7c8ccc(O)cc8OC[C@@H]7c7ccccc7)cc6F)CC5)CCN43)C2=O)C(=O)N1 (single isomer, unassigned) [Compound A9]",1 to 10 nM
3,"O=C1CCC(N2Cc3cc4c(cc3C2=O)OC[C@@H]2CN(CC3CC5(CCN(c6ccc([C@H]7c8ccc(O)cc8OC[C@H]7c7ccccc7)cc6)CC5)C3)CCN42)C(=O)N1 (single isomer, unassigned) [Compound A27, 3-((S)-3-((7-(4-((3R,4S)-7-hydroxy-3-phenylchroman-4-yl)phenyl)-7-azaspiro[3.5]nonan-2-yl)methyl)-8-oxo-1,2,3,4,4a,5,8,10-octahydro-9H-pyrazino[1′,2′:4,5][1,4]oxazino[2,3-f]isoindol-9-yl)piperidine-2,6-dione]",1 to 10 nM

# Same assay, conditions: MCF7, maximal ER degradation, MCF7, 16 hrs
row,Compound,Dmax
1,"O=C1CCC(N2C(=O)c3cc4c(cc3C2=O)CN(CC(=O)N2CC3(CCN(c5ccc([C@H]6c7ccc(O)cc7OC[C@H]6c6ccccc6)cc5)CC3)C2)C4)C(=O)N1 (single isomer, unassigned) [Compound A39]",< 25%
